The results in this text go back to ChEMBL document CHEMBL1144692, “Alkaloids from stems and leaves of Stemona japonica and their insecticidal activities” (J Nat Prod, 2008).

By EC50 is commonly meant the concentration giving half of the maximal effect. For orientation: IC50 means the concentration needed to halve the response being measured.

The structures appear in SMILES notation. Activity calls are given as the source filed them. The rule behind the calls is not given here.

For assay [1], the target named is T1, Nicotinic acetylcholine receptor alpha1 subunit (Heliothis virescens) (UniProt O46128).
T1 sequence (whole entry): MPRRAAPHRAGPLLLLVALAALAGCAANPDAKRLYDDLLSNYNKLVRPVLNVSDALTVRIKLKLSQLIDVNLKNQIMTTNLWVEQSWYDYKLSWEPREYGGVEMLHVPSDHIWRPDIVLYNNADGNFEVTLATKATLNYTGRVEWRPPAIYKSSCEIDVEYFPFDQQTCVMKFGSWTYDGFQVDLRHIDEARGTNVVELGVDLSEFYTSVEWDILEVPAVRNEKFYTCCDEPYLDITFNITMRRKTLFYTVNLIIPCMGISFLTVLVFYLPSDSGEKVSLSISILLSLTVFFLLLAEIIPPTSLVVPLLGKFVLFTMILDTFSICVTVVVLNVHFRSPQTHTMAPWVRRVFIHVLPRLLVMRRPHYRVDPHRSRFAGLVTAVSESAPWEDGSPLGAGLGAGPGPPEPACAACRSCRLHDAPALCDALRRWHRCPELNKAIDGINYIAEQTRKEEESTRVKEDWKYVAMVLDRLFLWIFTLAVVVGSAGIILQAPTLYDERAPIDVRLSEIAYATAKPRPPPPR
Description: Antagonist activity at nAChR in Heliothis virescens neuronal cells assessed as blockade of acetylcholine-induced response at 10 uM by voltage clamp technique. Format: functional, cell-based. Set-up: scale not given: the % may be the effect or the level left.

Assay [2] deals with T2, Nicotinic acetylcholine receptor alpha1 subunit (Heliothis virescens, UniProt O46128).
T2 sequence (O46128 whole entry): T1 sequence (whole entry)
The assay can be described thus: Agonist activity at nAChR in Heliothis virescens neuronal cells by voltage clamp technique. Format: functional, cell-based.

Assay [3] has as its system Spodoptera frugiperda. The assay can be described thus: Insecticidal activity against Spodoptera frugiperda at 500 g/ha. Format: functional, organism-based.
Assay [4] deals with Myzus persicae. The assay can be described thus: Insecticidal activity against Myzus persicae at 500 g/ha. Format: functional, organism-based.
In assay [5] the target is T2, Nicotinic acetylcholine receptor alpha1 subunit. Description: Antagonist activity at nAChR in Heliothis virescens neuronal cells by voltage clamp technique. Format: functional, cell-based.
For assay [6], the system named is Spodoptera frugiperda. Description: Insecticidal activity against Spodoptera frugiperda at 4 to 500 g/ha. Type of assay: functional, organism-based.
In assay [7] the test system is Myzus persicae. Description: Insecticidal activity against Myzus persicae at 4 to 500 g/ha. Format: functional, organism-based.

For `CC1=C[C@H]([C@H]2O[C@@H]3CCCN4[C@@H](CC[C@H]4[C@@H]4C[C@H](C)C(=O)O4)[C@H]3[C@@H]2C)OC1=O` (relative stereo), the Activity in assay [1] turned out to be 90%.

`CCCC[C@]12[C@H]3C[C@H]4[C@H]5[C@H](C)C(C6OC(=O)C(C)=C6OC)O[C@]5(O3)[C@@H]1[C@H](O)CN42` (stereo partly drawn) [6beta-hydroxystemofoline] came in with an EC50 in assay [2] of 157 nM. In addition, the outcome in assay [3] and in assay [4] was inactive.

In turn, `CCCC[C@]12[C@@H]3C[C@H]4[C@H]5[C@H](C)C(C6OC(=O)C(CO)=C6OC)O[C@]5(O3)[C@@H]1CCN42` (some centres undefined) [16-hydroxystemofoline] displayed an EC50 in assay [2] of 12 nM. As to `COC1=C(C)C(=O)O/C1=C(\O)[C@@H](C)[C@H]1[C@@H](O)CCCN2[C@H]1CC[C@H]2[C@@H]1C[C@H](C)C(=O)O1` [PROTOSTEMODIOL], in assay [5], the IC50 was determined as 10000 nM. With `CCCC[C@@]12C3CCN1[C@H]1C[C@H]2O[C@@]32O/C(=C3\OC(=O)C(C)=C3OC)[C@@H](C)[C@H]12` [STEMOFOLINE], a half-maximal response in assay [2] (EC50) required 50 nM. For the same compound, the result in assay [6] and in assay [7] was Active.
